In patent publication US20250018019A1, “TREATMENT OF INTERFERON DRIVEN INFLAMMATION” (The Provost, Fellows, Foundation Scholars and the other …, priority 2023, published 2025):
Where a name gives a salt, the structure may show the parent alone.

What was measured:
Type in all cases: cell-based, mouse
BMDMs [1] = experiment: RNA sequencing (GSEA, ORA) of BMDMs; conditions: LPS 4 h; for ERK1/2 cascade and PI3K signalling (shared transcriptomic changes) / amino acid metabolism and transport, and autophagy transcripts: BMDMs pre-treated
Protocol: (§1) All compounds used DMSO as a vehicle except for 4-hydroxy tamoxifen (EtOH), NAC (PBS), and AOAA for tracing experiments (Media). LPS was used at a concentration of 100 ng/ml for indicated timepoints (2, 3, 4, 6, 8, 24, 48 h). FHIN1 (10 or 20 μM), MMF (50 or 100 μM), DMF (25 μM), AOAA (5 mM), oligomycin (10 μM), CCCP (50 μM) NAC (1 mM), and IMT1 (10 μM) pre-treatments were performed for 3 h prior the addition of LPS. Cells were treated with valinomycin (10 nM) 15 mins before LPS stimulation. Anti-CD210 or IgG control (10 μg/ml) antibodies were added to cells 1 h prior to LPS stimulation. Recombinant mouse IL-10 protein (100 ng/ml) was added to cells at the same time as LPS. Cells were treated with IFN-B1 (220 ng/ml) for 3 h. Cells were treated with C-178 (1 μM) 1 h prior to LPS stimulation or transfection with 2′3′-cGAMP (1.5 μg/ml) for 4 hrs to achieve cGAS-STING activation. Cells were treated with ODN 2088 (1 μM) for 1 hr prior to LPS stimulation or transfection with CPG ODN 1826 (1.5 μg/ml) to achieve TLR9 activation. 3 different timepoints of 4-hydroxy tamoxifen (TAM) (600 nM or 2 μM) or EtOH treatment were performed-these are specified in the individual figure legends. For ‘48 h’ treatments EtOH/TAM was added on day 5 of 6 during the BMDM differentiation protocol. On day 6 they were plated with EtOH/TAM (left overnight) and treated the following day. For ‘72 h’ treatments EtOH/TAM was added on day 4 of 6 during the BMDM differentiation protocol. On day 6 they were plated with EtOH/TAM (left overnight) and treated the following day. For ‘96 h’ treatments EtOH/TAM was added on day 4 of 6 during the BMDM differentiation protocol. On day 6 they were plated with EtOH/TAM and treated 2 days later.
BMDMs (3 independent mice) were treated as indicated and RNA was extracted as previously detailed. mRNA was extracted from total RNA using poly-T-oligo-attached magnetic beads. After fragmentation, the first strand cDNA was synthesized using random hexamer primers, followed by the second strand cDNA synthesis. The library was checked with Qubit and real-time PCR for quantification and bioanalyzer for size distribution detection. Quantified libraries were pooled and sequenced on the NovaSeq 6000 S4 (Illumina). Differential expression analysis of two conditions/groups was performed using counted reads and the DESeq2 R package^67. Pathway enrichment analyses were performed as indicated in quantification and statistical analysis.
Details of all statistical analyses performed can be found in the figure legends. Data were expressed as mean±standard error of the mean (SEM) unless stated otherwise. Representative western blots are shown. For metabolomics data, MetaboAnalyst 5.0^66 was used to analyse, perform statistics, and visualise the results. Autoscaling of features (metabolites) was used for heatmap generation. One-way ANOVA corrected for multiple comparisons by the Tukey statistical test was used and a p.adjusted<0.05 was set as the cut-off. For proteomics data, protein signal intensity was converted to a log2 scale and biological replicates were grouped by experimental condition. Protein-wise linear models combined with empirical Bayes statistics were used for the differential expression analyses. The Bioconductor package limma was used to carry out the analysis using an R based online tool^68. […] The proteomics cut-offs for analysis were a log2FC of 0.5 and a false discovery rate (FDR)<0.05, determined using t statistics. RNA seq cut-offs were set to log2FC of 1 and an FDR<0.05. Overrepresentation analysis (ORA) of significant changes were assessed using Enrichr^4 and the Bioconductor package clusterProfiler 4.0 in R (version 3.6.1). Further information on this visualisation method is available^69. Emapplots were generated using enrichplot package in R (version 3.6.1). GSEA analysis of RNAseq was performed using the Broad Institutes GSEA 4.1.070. […]

BMDMs [2] = experiment: Western blotting of signalling proteins in BMDMs; conditions: for IFN-β-induced STAT1 and JAK1 phosphorylation / upstream kinases (AKT, JNK, ERK and p38), total and phospho levels: BMDMs pre-treated with DMSO, FHIN1 or DMF
Protocol: as §1
Supernatant was removed from cells following stimulation and lysates were harvested in 30-50 μl lysis buffer (0.125 M Tris pH 6.8, 10% glycerol, 0.02% SDS, 5% DTT) Lysates were subsequently heated to 95° C. for 5 mins to denature proteins. SDS-PAGE was used to resolve proteins by molecular weight. Samples were boiled at 95° C. for 5 mins prior to loading into a 5% stacking gel. The percentage resolving gel depended on the molecular weight of the given protein. The Bio-Rad gel running system was used to resolve proteins and the Bio-Rad wet transfer system was used for the electrophoretic transfer of proteins onto PVDF membrane. Following transfer, the membrane was incubated in milk powder (5% in TBST) for 1 hr and subsequently incubated in primary antibody rolling overnight at 4° C. Primary antibodies targeting phospho-proteins were diluted in BSA (5% in TBST) as opposed to milk. The membrane was incubated for 1 hr with secondary antibody (diluted in 5% milk powder) at room temperature. Prior to visualisation, the membrane was immersed in WesternBright ECL Spray (Advansta). Protein visualisation took place on a ChemiDoc MPTM Imaging System (Bio-Rad), and both chemiluminescent and white light images were taken. Images were analysed using Image Lab 6.0.1 (Bio-Rad).

BMDMs [3] = experiment: Seahorse XF Mito Stress Test (respirometry, OCR); conditions: BMDMs pre-treated 3 h, LPS 4 h
Protocol: as §1, with “For ‘72 h’ treatments EtOH/TAM was added on day 4 of 6 during the BMDM differentiation protocol. On day 6 they were plated with EtOH/TAM (left overnight) and treated the following day. For ‘96 h’ treatments EtOH/TAM was added on day 4 of 6 during the BMDM differentiation protocol. On day 6 they were plated with EtOH/TAM and treated 2 days later.” left out

Row | Compound | Fos expression (RNA seq) (BMDMs [1]; BMDMs pre-treated vs DMSO) | Jun expression (RNA seq) (BMDMs [1]; BMDMs pre-treated vs DMSO) | other ISGs, such as Lcn2 (RNAseq) (BMDMs [1]; BMDMs pre-treated vs DMSO) | ERK1/2 cascade and PI3K signalling (shared transcriptomic changes) (BMDMs [1]) | amino acid metabolism and transport, and autophagy transcripts (BMDMs [1]) | LPS-induced p65 phosphorylation (BMDMs [2]; BMDMs pre-treated) | IFN-β-induced STAT1 and JAK1 phosphorylation (BMDMs [2]) | upstream kinases (AKT, JNK, ERK and p38), total and phospho levels (BMDMs [2]) | basal respiration, ATP production and maximal respiration as measured by OCR (BMDMs [3]) | Ifnb1 (IFN-β) expression and several interferon-stimulated genes (Irf1, Ifih1, Rsad2, Ifit2), RNAseq (BMDMs [1]; BMDMs pre-treated vs DMSO) | NRF2 and ATF4 stress response (BMDMs [1]; BMDMs pre-treated vs DMSO) | TNF-α signalling (overrepresentation analysis of RNAseq) (BMDMs [1]; BMDMs pre-treated vs DMSO) | expression of HRI stress response, amino acid metabolism and tRNA aminoacylation (GSEA) (BMDMs [1]; BMDMs pre-treated vs DMSO) | expression of inflammatory pathways, including IL-1 and IL-10 signalling (GSEA) (BMDMs [1]; BMDMs pre-treated vs DMSO) | genes associated with metabolism (GSEA) (BMDMs [1]; BMDMs pre-treated vs DMSO) | LPS-induced IL-1β expression (IL-1β levels) (BMDMs [2]; BMDMs pre-treated) | LPS-induced TRAF3 levels (BMDMs [2]; BMDMs pre-treated, LPS 4 h) | TBK1 phosphorylation (BMDMs [2]; BMDMs pre-treated, LPS 4 h) | STAT3 phosphorylation (BMDMs [2]; BMDMs pre-treated, co-treated with recombinant IL-10 100 ng/ml, LPS 4 h)
1 | COC(=O)/C=C/C(=O)OC [DMF, dimethyl fumarate] | not reduced | reduced | suppressed | strong downregulation | increased | modestly augment | limited | did not observe changes | no effect |  |  |  |  |  |  |  |  |  | 
2 | CCOC(=O)[C@@]12CCCC=C1N(Cc1ccc(-c3ccccc3)cc1)C(=O)[C@H]2CC(=O)NC [FHIN1, Fumarate hydratase-IN-1] | not reduced | reduced | suppressed | strong downregulation | increased | modestly augment | limited | did not observe changes | impaired | upregulation | activation | most highly upregulated pathway | Increased expression | decreased | suppression | not increased | not increased | increased | failed to impair
